Like-named read-outs stand apart in the source and are kept apart here. Positions of bridges follow the written chain, without caps; N, C: chain ends. Non-standard residues stand in square brackets, D forms with d. Residues, ends and D or L forms follow the SMILES beside them. ξ: configuration not given here. *: point of attachment. Phe(2,4-F2) = N[C@@H](Cc1ccc(F)cc1F)C(=O)O; Phe(3-Br) = N[C@@H](Cc1cccc(Br)c1)C(=O)O; 2Nal = N[C@@H](Cc1ccc2ccccc2c1)C(=O)O; NMeIle(3ξ) = CCC(C)[C@H](NC)C(=O)O; Cit = NC(=O)NCCC[C@H](N)C(=O)O; Gly(cPr) = N[C@H](C(=O)O)C1CC1; Ahp(2) = CCCCC[C@H](N)C(=O)O; NMeNle = CCCC[C@H](NC)C(=O)O; Tle = CC(C)(C)[C@H](N)C(=O)O; NHexGly = CCCCCCNCC(=O)O; Nle = CCCC[C@H](N)C(=O)O; Orn = NCCC[C@H](N)C(=O)O; ξS = NC(CO)C(=O)O; Allyl = C=CC*
Biological target: T1, mouse VISTA (mVISTA) (Mus musculus, UniProt Q9D659)
T1 construct: expressed in transfected cells; host or cells: Human embryonic kidney 293T cells
T1 sequence (Q9D659 33-308): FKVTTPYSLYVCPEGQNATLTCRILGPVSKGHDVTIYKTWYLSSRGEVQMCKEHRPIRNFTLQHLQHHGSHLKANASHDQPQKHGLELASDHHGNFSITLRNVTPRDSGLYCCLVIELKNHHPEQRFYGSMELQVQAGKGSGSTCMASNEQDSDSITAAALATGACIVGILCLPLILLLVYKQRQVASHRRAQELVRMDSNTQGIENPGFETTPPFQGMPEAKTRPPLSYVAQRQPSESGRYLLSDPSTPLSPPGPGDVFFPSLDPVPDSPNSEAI
Experiment: Cell-Based Binding High-Content Assay For mVISTA (HC CBA mVISTA)
Details: read-out: HC CBA mVISTA IC50
How it was run: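 mVISTA-293T, 4,000 cells/well; cpd ± washout step; biotin-peptide 2 nM final, 30 min RT; SA-Alexa 647 30 min; formaldehyde/Hoechst fix; HCS imaging; 4PL IC50.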

[1] = cell-based binding high-content assay, mVISTA, the 15th table

| Compound | IC50 [nM] | IC50 [1] [nM] |
| --- | --- | --- |
| C=CCOc1ccc(C[C@@H]2NC(=O)CSC[C@@H](C(=O)NCC(N)=O)NC(=O)[C@H](CO)NC(=O)[C@H](C(C)(C)C)NC(=O)[C@@H]3CCCN3C(=O)[C@H](CCCCC)NC(=O)[C@H](CCCC)N(C)C(=O)[C@H](CCCNC(=N)N)NC(=O)[C@H](CC(N)=O)NC(=O)[C@H](CC(C)C)NC(=O)[C@H](Cc3ccc(O)cc3)NC(=O)CN(CCCCCC)C(=O)[C@H](CC(=O)O)NC(=O)[C@H](Cc3ccc(O)cc3)NC2=O)cc1 [compound 1223] ({CH2CO}-Y(Allyl)YD[NHexGly]YLNR[NMeNle][Ahp(2)]P[Tle]SCG-NH2; thioether N-14) | 18.1 |  |
| CCCCCCN1CC(=O)N[C@@H](Cc2ccc(O)cc2)C(=O)N[C@@H](CC(C)C)C(=O)N[C@@H](CC(N)=O)C(=O)N[C@@H](CCCNC(=N)N)C(=O)N(C)[C@@H](CCCC)C(=O)N[C@@H](CCCCC)C(=O)N2CCC[C@H]2C(=O)N[C@@H](C(C)(C)C)C(=O)N[C@@H](CO)C(=O)N[C@H](C(=O)NCC(N)=O)CSCC(=O)N[C@@H](Cc2cccc(Br)c2)C(=O)N[C@@H](Cc2ccc(O)cc2)C(=O)N[C@@H](CC(=O)O)C1=O [compound 1225] ({CH2CO}-[Phe(3-Br)]YD[NHexGly]YLNR[NMeNle][Ahp(2)]P[Tle]SCG-NH2; thioether N-14) | 31.2 |  |
| CCCCCCN1CC(=O)N[C@@H](Cc2ccc(O)cc2)C(=O)N[C@@H](CCCC)C(=O)N[C@@H](CC(=O)O)C(=O)N[C@@H](CCCNC(=N)N)C(=O)N[C@@H](CC(C)C)C(=O)N[C@@H](CCCCC)C(=O)N2CCC[C@H]2C(=O)N[C@@H](C(C)C)C(=O)N[C@@H](CC(=O)O)C(=O)N[C@H](C(=O)N[C@@H](CC(=O)O)C(N)=O)CSCC(=O)N[C@@H](Cc2ccc3ccccc3c2)C(=O)N[C@@H](Cc2c[nH]c3ccccc23)C(=O)N[C@@H](CC(=O)O)C1=O [compound 1226] ({CH2CO}-[2Nal]WD[NHexGly]Y[Nle]DRL[Ahp(2)]PVDCD-NH2; thioether N-14) |  | 14.4 |
| CCCCCCN1CC(=O)N[C@@H](Cc2ccc(O)cc2)C(=O)N[C@@H](CCCC)C(=O)N[C@@H](CC(=O)O)C(=O)N[C@@H](CCCN)C(=O)N[C@@H](CC(C)C)C(=O)N[C@@H](CCCCC)C(=O)N2CCC[C@H]2C(=O)N[C@@H](C(C)C)C(=O)N[C@@H](CC(=O)O)C(=O)N[C@H](C(=O)N[C@@H](CC(=O)O)C(N)=O)CSCC(=O)N[C@@H](Cc2ccc3ccccc3c2)C(=O)N[C@@H](Cc2c[nH]c3ccccc23)C(=O)N[C@@H](CC(=O)O)C1=O [compound 1227] ({CH2CO}-[2Nal]WD[NHexGly]Y[Nle]D[Orn]L[Ahp(2)]PVDCD-NH2; thioether N-14) |  | 32.2 |
| CCCCCCN1CC(=O)N[C@@H](Cc2ccc(O)cc2)C(=O)N[C@@H](C(C)C)C(=O)NCC(=O)N[C@@H](CCCNC(=N)N)C(=O)N[C@@H](CC(C)C)C(=O)N[C@@H](CCCCC)C(=O)N2CCC[C@H]2C(=O)N[C@@H](C(C)C)C(=O)N[C@@H](CC(=O)O)C(=O)N[C@H](C(=O)NCC(N)=O)CSCC(=O)N[C@@H](Cc2ccc3ccccc3c2)C(=O)N[C@@H](Cc2c[nH]c3ccccc23)C(=O)N[C@@H](CC(=O)O)C1=O [compound 1228] ({CH2CO}-[2Nal]WD[NHexGly]YVGRL[Ahp(2)]PVDCG-NH2; thioether N-14) |  | 27.1 |
| CCCCCCN1CC(=O)N[C@@H](Cc2ccc(O)cc2)C(=O)N[C@@H](C(C)C)C(=O)NCC(=O)N[C@@H](CCCNC(=N)N)C(=O)N[C@@H](CC(C)C)C(=O)N[C@@H](CCCCC)C(=O)N2CCC[C@H]2C(=O)N[C@@H](C(C)C)C(=O)N[C@@H](CCCNC(=N)N)C(=O)N[C@H](C(=O)NCC(=O)O)CSCC(=O)N[C@@H](Cc2ccc3ccccc3c2)C(=O)N[C@@H](Cc2c[nH]c3ccccc23)C(=O)N[C@@H](CC(=O)O)C1=O [compound 1230] ({CH2CO}-[2Nal]WD[NHexGly]YVGRL[Ahp(2)]PVRCG-OH; thioether N-14) |  | 5.7 |
| CCCCCCN1CC(=O)N[C@@H](Cc2ccc(O)cc2)C(=O)N[C@@H](CCCC)C(=O)N[C@@H](CC(=O)O)C(=O)N[C@@H](CCCNC(=N)N)C(=O)N[C@@H](CC(C)C)C(=O)N[C@@H](CCCCC)C(=O)N2CCC[C@H]2C(=O)N[C@@H](C(C)C)C(=O)N[C@@H](CC(=O)O)C(=O)N[C@H](C(=O)N[C@@H](CO)C(N)=O)CSCC(=O)N[C@@H](Cc2ccc3ccccc3c2)C(=O)N[C@@H](Cc2c[nH]c3ccccc23)C(=O)N[C@@H](CC(=O)O)C1=O [compound 1235] ({CH2CO}-[2Nal]WD[NHexGly]Y[Nle]DRL[Ahp(2)]PVDCS-NH2; thioether N-14) |  | 13.4 |
| CCCCCCN1CC(=O)N[C@@H](Cc2ccc(O)cc2)C(=O)N[C@@H](CCCC)C(=O)N[C@@H](CC(=O)O)C(=O)N[C@@H](CCCN)C(=O)N[C@@H](CC(C)C)C(=O)N[C@@H](CCCCC)C(=O)N2CCC[C@H]2C(=O)N[C@@H](C(C)C)C(=O)N[C@@H](CC(=O)O)C(=O)N[C@H](C(=O)N[C@@H](CO)C(N)=O)CSCC(=O)N[C@@H](Cc2ccc3ccccc3c2)C(=O)N[C@@H](Cc2c[nH]c3ccccc23)C(=O)N[C@@H](CC(=O)O)C1=O [compound 1236] ({CH2CO}-[2Nal]WD[NHexGly]Y[Nle]D[Orn]L[Ahp(2)]PVDCS-NH2; thioether N-14) |  | 27.7 |

The next lines start with the values.

| IC50 [nM] | IC50 [1] [nM] | Compound |
| --- | --- | --- |
| 20.3 |  | CCCCCCN1CC(=O)N[C@@H](Cc2ccc(O)cc2)C(=O)N[C@@H](CCCCC)C(=O)N[C@@H](CC(N)=O)C(=O)N[C@@H](CCCNC(=N)N)C(=O)N(C)[C@@H](CCCC)C(=O)N[C@@H](CCCCC)C(=O)N2CCC[C@H]2C(=O)N[C@@H](C(C)C)C(=O)N[C@@H](C(C)C)C(=O)N[C@H](C(=O)NC(CO)C(=O)O)CSCC(=O)N[C@@H](Cc2ccc(F)cc2F)C(=O)N[C@@H](Cc2c[nH]c3ccccc23)C(=O)N[C@@H](CC(=O)O)C1=O (stereo partly drawn) [compound 1221] ({CH2CO}-[Phe(2,4-F2)]WD[NHexGly]Y[Ahp(2)]NR[NMeNle][Ahp(2)]PVVC[ξS]-OH; thioether N-14) |
| 21.7 |  | C=CCOc1ccc(C[C@@H]2NC(=O)CSC[C@@H](C(=O)NCC(N)=O)NC(=O)[C@H](CO)NC(=O)[C@H](C(C)C)NC(=O)[C@@H]3CCCN3C(=O)[C@H](CCCCC)NC(=O)[C@H](CCCC)N(C)C(=O)[C@H](CCCNC(=N)N)NC(=O)[C@H](CC(N)=O)NC(=O)[C@H](CC(C)C)NC(=O)[C@H](Cc3ccc(O)cc3)NC(=O)CN(CCCCCC)C(=O)[C@H](CC(=O)O)NC(=O)[C@H](Cc3ccc(O)cc3)NC2=O)cc1 [compound 1222] ({CH2CO}-Y(Allyl)YD[NHexGly]YLNR[NMeNle][Ahp(2)]PVSCG-NH2; thioether N-14) |
| 22.6 |  | CCCCCCN1CC(=O)N[C@@H](Cc2ccc(O)cc2)C(=O)N[C@@H](CC(C)C)C(=O)N[C@@H](CC(N)=O)C(=O)N[C@@H](CCCNC(=N)N)C(=O)N(C)[C@@H](CCCC)C(=O)N[C@@H](CCCCC)C(=O)N2CCC[C@H]2C(=O)N[C@@H](C(C)C)C(=O)N[C@@H](CO)C(=O)N[C@H](C(=O)NCC(N)=O)CSCC(=O)N[C@@H](Cc2cccc(Br)c2)C(=O)N[C@@H](Cc2ccc(O)cc2)C(=O)N[C@@H](CC(=O)O)C1=O [compound 1224] ({CH2CO}-[Phe(3-Br)]YD[NHexGly]YLNR[NMeNle][Ahp(2)]PVSCG-NH2; thioether N-14) |
|  | 13.2 | CCCCCCN1CC(=O)N[C@@H](Cc2ccc(O)cc2)C(=O)N[C@@H](CCCC)C(=O)N[C@@H](CC(N)=O)C(=O)N[C@@H](CCCNC(=N)N)C(=O)N[C@@H](CC(C)C)C(=O)N[C@@H](CCCCC)C(=O)N2CCC[C@H]2C(=O)N[C@@H](C(C)C)C(=O)N[C@@H](CC(=O)O)C(=O)N[C@H](C(=O)NCC(=O)O)CSCC(=O)N[C@@H](Cc2ccc3ccccc3c2)C(=O)N[C@@H](Cc2c[nH]c3ccccc23)C(=O)N[C@@H](CC(=O)O)C1=O [compound 1229] ({CH2CO}-[2Nal]WD[NHexGly]Y[Nle]NRL[Ahp(2)]PVDCG-OH; thioether N-14) |
|  | 36 | CCCCCCN1CC(=O)N[C@@H](Cc2ccc(O)cc2)C(=O)N[C@@H](CCCC)C(=O)N[C@@H](CC(N)=O)C(=O)N[C@@H](CCCNC(=N)N)C(=O)N[C@@H](CC(C)C)C(=O)N[C@@H](CCCCC)C(=O)N2CCC[C@H]2C(=O)N[C@@H](C(C)C)C(=O)N[C@@H](C2CC2)C(=O)N[C@H](C(=O)NCC(=O)O)CSCC(=O)N[C@@H](Cc2ccc3ccccc3c2)C(=O)N[C@@H](Cc2c[nH]c3ccccc23)C(=O)N[C@@H](CC(=O)O)C1=O [compound 1232] ({CH2CO}-[2Nal]WD[NHexGly]Y[Nle]NRL[Ahp(2)]PV[Gly(cPr)]CG-OH; thioether N-14) |
|  | 10.5 | CCCCCCN1CC(=O)N[C@@H](Cc2ccc(O)cc2)C(=O)N[C@@H](CCCC)C(=O)N[C@@H](CC(N)=O)C(=O)N[C@@H](CCCNC(N)=O)C(=O)N[C@@H](CC(C)C)C(=O)N[C@@H](CCCCC)C(=O)N2CCC[C@H]2C(=O)N[C@@H](C(C)C)C(=O)N[C@@H](CC(=O)O)C(=O)N[C@H](C(=O)NCC(=O)O)CSCC(=O)N[C@@H](Cc2ccc3ccccc3c2)C(=O)N[C@@H](Cc2c[nH]c3ccccc23)C(=O)N[C@@H](CC(=O)O)C1=O [compound 1233] ({CH2CO}-[2Nal]WD[NHexGly]Y[Nle]N[Cit]L[Ahp(2)]PVDCG-OH; thioether N-14) |
|  | 9.1 | CCCCCCN1CC(=O)N[C@@H](Cc2ccc(O)cc2)C(=O)N[C@@H](CCCC)C(=O)N[C@@H](CC(N)=O)C(=O)N[C@@H](CCCNC(=N)N)C(=O)N(C)[C@@H](C(C)CC)C(=O)N[C@@H](CCCCC)C(=O)N2CCC[C@H]2C(=O)N[C@@H](C(C)C)C(=O)N[C@@H](CC(=O)O)C(=O)N[C@H](C(=O)NCC(=O)O)CSCC(=O)N[C@@H](Cc2ccc3ccccc3c2)C(=O)N[C@@H](Cc2c[nH]c3ccccc23)C(=O)N[C@@H](CC(=O)O)C1=O (stereo partly drawn) [compound 1237] ({CH2CO}-[2Nal]WD[NHexGly]Y[Nle]NR[NMeIle(3ξ)][Ahp(2)]PVDCG-OH; thioether N-14) |

Source: patent US20240218022A1, “ANTI-VISTA MACROCYCLIC PEPTIDES AND COMPOSITIONS” (BRISTOL-MYERS SQUIBB COMPANY, priority 2022, published 2024)
